Source: US9532988B2, “Pharmaceutical composition comprising a TRPA1 antagonist and an analgesic agent” (GLENMARK PHARMACEUTICALS S.A., priority 2013, dated 2017)
Counter-ions that a name gives are not always drawn.

Columns and labels:
[1] = tested on: FCA-induced thermal hyperalgesia in male SD rats; assay: FCA-induced thermal hyperalgesia (Hargreaves apparatus); type: in vivo, rat (Sprague-Dawley); details: diclofenac sodium 6 mg/kg p.o. alone; 0.5-4 h post-dose; Example 16, Table 19, FIG. 22
Experimental: The % reversal of mechanical/thermal hyperalgesia was calculated.

[2] = tested on: Freund's Complete Adjuvant (FCA)-induced inflammatory mechanical hyperalgesia in male SD rats; assay: FCA-induced inflammatory mechanical hyperalgesia (Randall-Sellitto paw pressure);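 further: left hind paw withdrawal threshold (g) to rising pressure on an analgesymeter, FCA injected intraplantar 24 h earlier, thresholds taken before and 0.5, 1, 2 and 4 h after oral dosing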
Experimental: Materials: FCA containing 1 mg/ml of heat killed and dried Mycobacterium tuberculosis (H37RA strain) emulsified in mineral oil and mannide mono-oleate; Male SD rats weighing 170-220 g; Paw Pressure Analgesymeter (37215, Ugo Basile, Comerio, Italy); Compound I potassium; and Diclofenac sodium
Naïve withdrawal thresholds of the left hind paw to an increasing pressure (g) stimulus were measured in rats using the analgesymeter. FCA was injected (30 μl) into the plantar region of left paw of rats to induce the inflammatory hyperalgesia. Mechanical hyperalgesia (24 h after FCA injection) was assessed by measuring hind paw withdrawal thresholds.
The post-dose paw withdrawal thresholds were measured at 0.5, 1, 2 & 4 h after oral administration. The percentage (%) reversal of mechanical hyperalgesia was calculated as per standard procedure.
Naïve withdrawal thresholds of the left hind paw to an increasing pressure (g) stimulus were measured in rats using the analgesymeter. Freund's Complete Adjuvant (FCA) was injected (30 μl) into the plantar region of left paw of rats to induce the inflammatory hyperalgesia. Mechanical hyperalgesia (24 h after FCA injection) was assessed both pre- & post-dosing of drugs by measuring hind paw withdrawal thresholds. […] The post-dose paw withdrawal thresholds were measured at 0.5, 1, 2 & 4 h after oral administration. The % reversal of mechanical hyperalgesia was calculated.
Naïve withdrawal thresholds of the left hind paw to an increasing pressure (g) stimulus were measured in rats using the analgesymeter.

[3] = tested on: motor coordination in rotarod test in male SD rats; assay: Motor coordination in rotarod test; type: in vivo, rat (Sprague-Dawley)
Experimental: FIG. 9 is a bar graph that represents effect of Compound I (3 mg/kg), thiocolchicoside (0.01 mg/kg) and their combination on motor coordination in rotarod test in male SD rats.
FIG. 19 is a bar graph that represents effect of combination of thiocolchicoside (0.01 mg/kg) and Compound II (0.13 mg/kg) and their combination on motor coordination in rotarod test in male SD rats.

[4] = tested on: Streptozotocin (STZ)-induced diabetic peripheral neuropathic hyperalgesia in male SD rats; assay: Streptozotocin-induced diabetic peripheral neuropathic hyperalgesia; type: in vivo, rat (Sprague-Dawley)
Experimental: Streptozotocin (STZ)-induced neuropathic hyperalgesia in rats is a model to screen potential therapeutics for diabetic painful neuropathy in human patients. Streptozotocin was dissolved in freshly prepared cold citrate buffer (0.1 M, pH—4.4). Diabetes was induced in overnight fasted male SD rats (weighing 250-300 g) by a single intraperitoneal injection of Streptozotocin (Sigma, 55 mg/kg, i.p). […] On the day of the experiment (13th day after STZ injection) rats were assessed for mechanical hyperalgesia using Randall-Sellito paw pressure analgesymeter. Animals were weighed and grouped as described in Table 9.
Rats were orally dosed with vehicle, duloxetine hydrochloride, Compound I potassium salt and combination (Duloxetine+Compound I).
Streptozotocin (STZ)-induced neuropathic hyperalgesia in rats is a model to screen potential therapeutics for diabetic painful neuropathy in human patients. Streptozotocin was dissolved in freshly prepared cold citrate buffer (0.1 M, pH —4.4). Diabetes was induced in overnight fasted male Sprague Dawley rats by a single intraperitoneal injection of Streptozotocin (Sigma, 55 mg/kg, i.p). […] On the day of the experiment (13th day after STZ injection) rats were assessed for mechanical hyperalgesia using Randall-Sellito paw pressure analgesymeter.
Rats were orally dosed with vehicle, different doses of duloxetine hydrochloride, Compound II disodium salt and combinations (duloxetine+Compound II—simultaneously). The post-dose paw withdrawal thresholds were measured at 1, 2 & 4 h after oral administration. […] Animals were weighed and grouped as described in Table 16.
Rats were orally dosed with vehicle, different doses of duloxetine hydrochloride, Compound III disodium salt and combinations (duloxetine+Compound III—simultaneously). […] Animals were weighed and grouped as described in Table 21.

[5] = tested on: Monosodium Iodo Acetate (MIA)-osteoarthritis induced weight bearing deficit in male SD rats; assay: MIA-osteoarthritis induced weight bearing deficit (incapacitance meter); type: in vivo, rat (Sprague-Dawley); details: Compound I 1 mg/kg p.o. alone; 0.5-4 h post-dose; Example 3, Table 5, FIG. 5
Experimental: After recording basal weight borne by both hind limbs (naïve) using the incapacitance meter (IITC Inc), rats were briefly anaesthetized with 2% isoflurane and O2 mixture and given intraarticular (i.a.) injection of MIA (5 mg per rat in […]) through the intrapatellar ligament of the left knee (Combe et al., 2004). MIA was dissolved in 0.9% sterile saline and administered using a 26½ gauge needle. Contralateral knees were injected intra-articularly with 50 μl of 0.9% sterile saline. Weight bearing deficit in ipsilateral paw was assessed 20 h post MIA injection by measuring weight borne by both hind limbs.
On the day of the experiment (20 h after MIA injection), rats were evaluated for pre-dose weight bearing deficit to assess the effect of MIA. After regrouping the rats after randomization, the pre- & post-dose weight bearing deficit, was assessed for both hind limbs. Rats were orally dosed with vehicle, naproxen, compound I potassium salt and combination (Naproxen+Compound I—simultaneously). The effect of compound I, naproxen and their combination, in MIA-osteoarthritis induced weight bearing deficit in male SD rats, was evaluated using Incapacitance meter (IITC Inc.) fitted with a perspex chamber designed so that each hind paw rat rests on separate transducer pads to record animal's weight on each paw. […] The % reversal of weight bearing deficit was calculated as per standard procedure. […]

[6] = tested on: CCI-induced neuropathic hyperalgesia in male SD rats; assay: Chronic constriction injury (CCI)-induced mechanical hyperalgesia; type: in vivo, rat (Sprague-Dawley); details: 0.5-4 h post-dose, Example 8, Table 11, FIG. 12
Experimental: The objective of this experiment was to study the combinational effect of Compound I and pregabalin in CCI-induced neuropathic hyperalgesia in male SD rats. Male SD rats weighing 180-220 g were grouped according to Table 11. Rats were anesthetized using ketamine/xylazine (40/5 mg/kg, i.p.) and the left sciatic nerve was exposed at mid-thigh level through a small incision. Four loose ligatures of 4-0 chromic cat gut at 1 mm space were placed around the sciatic nerve after the bifurcation of common sciatic nerve. After 6-7 days, mechanical hyperalgesia was assessed by measuring hind paw withdrawal thresholds to an increasing pressure (g) stimulus, using the Randall-Sellitto analgesymeter (Ugo Basile, Italy), fitted with a wedge-shaped probe.
Rats were orally dosed with vehicle, pregabalin, Compound I potassium salt and combination (Pregabalin+Compound I).

[7] = tested on: Spinal nerve ligation (SNL) injury-induced neuropathic hyperalgesia in male SD rats; assay: Spinal nerve ligation (SNL)-induced mechanical hyperalgesia; type: in vivo, rat (Sprague-Dawley); details: 0.5-4 h post-dose, Example 15, Table 18, FIG. 20
Experimental: Spinal nerve ligation (SNL) injury in rats induces neuropathic mechanical hyperalgesia in this Chung's model. Rats were anesthetized using ketamine/xylazine (40/5 mg/kg, i.p.) and a 2-3 cm longitudinal incision was made in the lumbar spinal region, 5-6 mm lateral to the midline and above the lower lumbar vertebrae and the rostral sacrum, exposing the paraspinal muscles on the left side. The paraspinal muscles were isolated using blunt-tipped scissors for exposing L6 transverse process. The L6 transverse process was cut with the help of blunt-tipped scissor to visualize the left L5 spinal nerves. The nerves were cleaned from adhering tissue and were tightly ligated using 7.0 silk sutures (EP 1.5, Pearsalls Ltd) (Somerset, UK). The wound was closed with muscle & skin sutures and Povidone-iodine solution was applied every day till complete healing. […] Mechanical hyperalgesia was assessed by measuring hind paw withdrawal to an increasing pressure (g) stimulus, using an analgesymeter (Ugo Basile, Italy) fitted with a wedge-shaped probe.
Mechanical hyperalgesia was assessed both pre- & post-dosing of drugs by measuring hind paw withdrawal thresholds. […] The post-dose paw withdrawal thresholds were measured at 0.5, 1, 2 & 4 h after oral administration. The % reversal of mechanical hyperalgesia was calculated as per standard procedure.

For `O=C(O)Cc1ccccc1Nc1c(Cl)cccc1Cl` [diclofenac sodium], the “maximal % reversal of thermal hyperalgesia” value [1] was 27%, the “maximal % reversal of hyperalgesia” value ([2]; diclofenac sodium 6 mg/kg p.o. alone, 0.5-4 h post-dose, Example 1, Table 1, FIG. 1) was 15% and the “maximal % reversal of hyperalgesia” value ([2]; diclofenac sodium 6 mg/kg p.o. alone, Example 9, Table 12, FIG. 13) was 14%. The “maximal % reversal of mechanical hyperalgesia” value ([2]; diclofenac sodium 6 mg/kg p.o. alone, Example 16, Table 19, FIG. 21) was 23% and the “maximal % reversal of hyperalgesia” value ([2]; diclofenac sodium 8 mg/kg p.o. alone, Example 1, Table 2, FIG. 2) was 39%.
In the case of `COc1c(O[C@@H]2O[C@H](CO)[C@@H](O)[C@H](O)[C@H]2O)cc2c(c1OC)-c1ccc(SC)c(=O)cc1[C@@H](NC(C)=O)CC2` [thiocolchicoside], the “motor deficits (rotarod)” value ([3]; thiocolchicoside 0.01 mg/kg alone, Example 6, FIG. 9) is reported as “did not produce any motor deficits”, the “motor deficits (rotarod)” value ([3]; thiocolchicoside 0.01 mg/kg alone, n=8, Example 14, FIG. 19) is reported as “did not produce any motor deficits” and the “maximal % reversal of hyperalgesia” value ([2]; thiocolchicoside 0.01 mg/kg p.o. alone, Example 6, Table 8, FIG. 8) is reported as 15%. The “maximal % reversal of hyperalgesia” value ([2]; thiocolchicoside 0.01 mg/kg p.o. alone, Example 14, Table 17, FIG. 18) was 14%.
For `CNCC[C@H](Oc1cccc2ccccc12)c1cccs1` [duloxetine hydrochloride], the “maximal % reversal of hyperalgesia” value ([4]; duloxetine hydrochloride 3 mg/kg p.o. alone, 0.5-4 h post-dose, Example 7, Table 9, FIG. 10) was 23%, the “maximal % reversal of hyperalgesia” value ([4]; duloxetine hydrochloride 3 mg/kg p.o. alone, 0.5-4 h post-dose, Example 18, Table 21, FIG. 24) was 20% and the “maximal % reversal of hyperalgesia” value ([4]; duloxetine hydrochloride 3 mg/kg p.o. alone, 1, 2 & 4 h post-dose, Example 13, Table 16, FIG. 17) was 17%. For the same compound, the “maximal % reversal of hyperalgesia” value ([4]; duloxetine hydrochloride 10 mg/kg p.o. alone, Example 7, Table 10, FIG. 11) was 35%.
For `Cc1cnc(NC(=O)C2=C(O)c3ccccc3S(=O)(=O)N2C)s1` [meloxicam], the “maximal % reversal of hyperalgesia” value ([2]; meloxicam 0.5 mg/kg p.o. alone, Example 4, Table 6, FIG. 6) was 21% and the “maximal % reversal of hyperalgesia” value ([2]; meloxicam 0.5 mg/kg p.o. alone, Example 11, Table 14, FIG. 15) was 19%.
With `Cn1c(=O)c2c(CC(=O)Nc3nc(-c4ccc(F)c(C(F)(F)F)c4F)cs3)csc2n(C)c1=O` [Compound I, N-{4-[2,4-difluoro-3-(trifluoromethyl)phenyl]-1,3-thiazol-2-yl}-2-(1,3-dimethyl-2,4-dioxo-1,2,3,4-tetrahydrothieno[2,3-d]pyrimidin-5-yl)acetamide] the “maximal % reversal of weight bearing deficit” value [5] was 8%, the “maximal % reversal of hyperalgesia” value ([4]; Compound I 1 mg/kg p.o. alone, Example 7, Table 10, FIG. 11) was 10% and the “maximal % reversal of hyperalgesia” value ([4]; Compound I 3 mg/kg p.o. alone, 0.5-4 h post-dose, Example 7, Table 9, FIG. 10) was 26%. For the same compound, the “maximal % reversal of hyperalgesia” value ([6]; Compound I 3 mg/kg p.o. alone) was 22%, the “maximal % reversal of hyperalgesia” value ([2]; Compound I 1 mg/kg p.o. alone, Example 1, Table 2, FIG. 2) was 15% and the “maximal % reversal of hyperalgesia” value ([2]; Compound I 1 mg/kg p.o. alone, Example 2, Table 4, FIG. 4) was 10%. The “maximal % reversal of hyperalgesia” value ([2]; Compound I 3 mg/kg p.o. alone, 0.5-4 h post-dose, Example 1, Table 1, FIG. 1) was 21%, the “maximal % reversal of hyperalgesia” value ([2]; Compound I 3 mg/kg p.o. alone, Example 2, Table 3, FIG. 3) was 25% and the “maximal % reversal of hyperalgesia” value ([2]; Compound I 3 mg/kg p.o. alone, Example 4, Table 6, FIG. 6) was 21%. For the same compound, the “maximal % reversal of hyperalgesia” value ([2]; Compound I 3 mg/kg p.o. alone, Example 5, Table 7, FIG. 7) was 25% and the “maximal % reversal of hyperalgesia” value ([2]; Compound I 3 mg/kg p.o. alone, Example 6, Table 8, FIG. 8) was 17%.
With `CC(=O)Nc1ccc(O)cc1` [paracetamol] the “maximal % reversal of hyperalgesia” value ([2]; paracetamol 60 mg/kg p.o. alone, Example 5, Table 7, FIG. 7) was 28% and the “maximal % reversal of hyperalgesia” value ([2]; paracetamol 60 mg/kg p.o. alone, Example 12, Table 15, FIG. 16) was 17%.
`Cn1nc2c(c1CC(=O)N=c1scc(-c3ccc(F)c(C(F)(F)F)c3F)n1COP(=O)(O)O)c(=O)n(C)c(=O)n2C` [Compound II, 4-(2,4-difluoro-3-(trifluoromethyl)phenyl)-2-((2-(2,5,7-trimethyl-4,6-dioxo-4,5,6,7-tetrahydro-2H-pyrazolo[3,4-d]pyrimidin-3-yl)acetyl)imino)thiazol-3 (2H)-yl)methyl dihydrogen phosphate] was tested, and the “maximal % reversal of hyperalgesia” value ([4]; Compound II 0.04 mg/kg p.o. alone, 1, 2 & 4 h post-dose, Example 13, Table 16, FIG. 17) was 13%, the “maximal % reversal of hyperalgesia” value ([7]; Compound II 0.13 mg/kg p.o. alone) was 18% and the “motor deficits (rotarod)” value ([3]; Compound II 0.13 mg/kg alone, n=8, Example 14, FIG. 19) was “did not produce any motor deficits”. The “maximal % reversal of hyperalgesia” value ([2]; Compound II 0.13 mg/kg p.o. alone, Example 9, Table 12, FIG. 13) was 21%, the “maximal % reversal of hyperalgesia” value ([2]; Compound II 0.13 mg/kg p.o. alone, Example 10, Table 13, FIG. 14) was 22% and the “maximal % reversal of hyperalgesia” value ([2]; Compound II 0.13 mg/kg p.o. alone, Example 11, Table 14, FIG. 15) was 14%. The “maximal % reversal of hyperalgesia” value ([2]; Compound II 0.13 mg/kg p.o. alone, Example 12, Table 15, FIG. 16) was 22% and the “maximal % reversal of hyperalgesia” value ([2]; Compound II 0.13 mg/kg p.o. alone, Example 14, Table 17, FIG. 18) was 14%.
With `CC(C)C[C@H](CN)CC(=O)O` [pregabalin] the “maximal % reversal of hyperalgesia” value ([6]; pregabalin 1 mg/kg p.o. alone) was 14% and the “maximal % reversal of hyperalgesia” value ([7]; pregabalin 1 mg/kg p.o. alone) was 20%.
